Values of other authors in patent publication US20200354402A1, “PEPTIDE COMPOSITIONS AND RELATED METHODS” (Allegro Pharmaceuticals, LLC, priority 2017, published 2020).

System: ischemia-induced retinal neovascularization
Details: intravitreal injection; stated as known

R—G—E.TFA [Test Compound 21]
known activity of the control peptides: known to be inactive
